Like-named read-outs stand apart in the source and are kept apart here.
Legend:
[1] = biological target: T1, West Nile Virus (WNV) NS2B-NS3 protease (West Nile virus, UniProt Q9Q6P4); assay: WNV protease inhibition assay; assay type: biochemical; conditions: Table 4; letter codes for IC50
T1 construct: NS2B1423-1470); purchased R&D 2907-SE-020
Source text: WNV protease inhibition assay

ZIKV replicon = assay: ZIKV replication inhibition assay (NanoLuc replicon in Vero cells); conditions: 72 h
[2] = Zika virus, Vero, read-out: ZIKA Cell_Nanoluc, Vero cells with stable ZIKV replicon, 72 h, Nano-Glo readout
[3] = Zika virus, Vero, read-out: ZIKA Cell_Nanoluc
[4] = read-out: ZIKA Cell_Nanoluc, Vero cells with stable ZIKV replicon, Nano-Glo readout

T1 sequence (Q9Q6P4 1423-1470): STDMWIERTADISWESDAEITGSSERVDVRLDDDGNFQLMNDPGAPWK
T1 sequence (Q9Q6P4 1506-1689): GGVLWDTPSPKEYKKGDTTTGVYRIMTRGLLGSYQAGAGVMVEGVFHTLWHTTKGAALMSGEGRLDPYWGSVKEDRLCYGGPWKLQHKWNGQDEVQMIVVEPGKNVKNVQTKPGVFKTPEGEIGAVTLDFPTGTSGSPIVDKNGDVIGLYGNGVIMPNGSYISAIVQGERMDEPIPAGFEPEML

SMILES	IC50 [1]	EC50 (ZIKV replicon; [2])	EC50 (ZIKV replicon; [3])	EC50 (ZIKV replicon; [4])
Cc1ncnc(C)c1-c1ccc(C[n+]2cc([N-]C(=O)Nc3cccc(C(F)(F)F)c3)on2)nn1 [Example 184, (3-((6-(4,6-Dimethylpyrimidin-5-yl)pyridazin-3-yl)methyl)-1,2,3-oxadiazol-3-ium-5-yl)((3-(trifluoromethyl)phenyl)carbamoyl)amide]	100 to 1000 nM	100 to 1000 nM	–	–
CN(C)C[C@H]1CC[C@H]([n+]2cc([N-]C(=O)Nc3cc(NC(=O)Cc4cccc(O)n4)cc(C(F)(F)F)c3)on2)CC1 [Example 196, (3-((1R,4R)-4-((Dimethylamino)methyl)-cyclohexyl)-1,2,3-oxadiazol-3-ium-5-yl)((3-(2-(6-hydroxypyridin-2-yl)acetamido)-5-(trifluoromethyl)phenyl)carbamoyl)amide]	1000 to 20000 nM	–	100 to 1000 nM	–
Cc1ncncc1[C@H]1CC[C@H](C[n+]2cc([N-]C(=O)Nc3ccnc(C(F)(F)F)c3)on2)CC1 [Example 241, (3-(((1R,4S)-4-(4-Methylpyrimidin-5-yl)cyclohexyl)methyl)-1,2,3-oxadiazol-3-ium-5-yl)((2-(trifluoromethyl)pyridin-4-yl)carbamoyl)-amide]	< 100 nM	–	100 to 1000 nM	–
COc1ccccc1CC(=O)Nc1cc(NC(=O)[N-]c2c[n+](C3CCC(CN(C)C)CC3)no2)cc(C(F)(F)F)c1 [Example 153, (3-((1R,4R)-4-((Dimethylamino)methyl)-cyclohexyl)-1,2,3-oxadiazol-3-ium-5-yl)((3-(2-(2-methoxyphenyl)acetamido)-5-(trifluoromethyl)-phenyl)carbamoyl)amide]	100 to 1000 nM	–	–	1000 to 20000 nM
CN(C)CC1CCC([n+]2cc([N-]C(=O)Nc3cc(NC(=O)Cc4ccccc4C(=O)O)cc(C(F)(F)F)c3)on2)CC1 [Example 159, ((3-(2-(2-Carboxyphenyl)acetamido)-5-(trifluoromethyl)phenyl)carbamoyl)(3-((1R,4R)-4-((dimethylamino)methyl)cyclohexyl)-1,2,3-oxadiazol-3-ium-5-yl)amide]	< 100 nM	–	–	1000 to 20000 nM
O=C([N-]c1c[n+](CC23CCC(c4cncnc4)(CC2)C3)no1)Nc1ccnc(C(F)(F)F)c1 [Example 185, (3-((4-(Pyrimidin-5-yl)bicyclo[2.2.1]heptan-1-yl)methyl)-1,2,3-oxadiazol-3-ium-5-yl)((2-(trifluoromethyl)pyridin-4-yl)carbamoyl)amide]	100 to 1000 nM	1000 to 20000 nM	–	–
CC(C(=O)Nc1cc(NC(=O)[N-]c2c[n+]([C@H]3CC[C@H](CN(C)C)CC3)no2)cc(C(F)(F)F)c1)c1ccccc1 (stereo partly drawn) [Example 164, (3-((1R,4R)-4-((Dimethylamino)methyl)-cyclohexyl)-1,2,3-oxadiazol-3-ium-5-yl)((3-(2-phenylpropanamido)-5-(trifluoromethyl)phenyl)-carbamoyl)amide]	< 100 nM	–	100 to 1000 nM	–
O=C([N-]c1c[n+]([C@H]2CCC[C@H](c3cncnc3)C2)no1)Nc1ccnc(C(F)(F)F)c1 [Example 219, (3-((1S,3S)-3-(Pyrimidin-5-yl)cyclohexyl)-1,2,3-oxadiazol-3-ium-5-yl)((2-(trifluoromethyl)pyridin-4-yl)carbamoyl)amide]	100 to 1000 nM	1000 to 20000 nM	–	–
CN(C)C[C@H]1CC[C@H]([n+]2cc([N-]C(=O)Nc3cc(NC(=O)C4CCCc5ccccc54)cc(C(F)(F)F)c3)on2)CC1 (stereo partly drawn) [Example 177, (3-((1R,4R)-4-((Dimethylamino)methyl)-cyclohexyl)-1,2,3-oxadiazol-3-ium-5-yl)((3-(1,2,3,4-tetrahydronaphthalene-1-carboxamido)-5-(trifluoromethyl)phenyl)carbamoyl)amide]	100 to 1000 nM	–	1000 to 20000 nM	–
Cc1noc(C)c1CC(=O)Nc1cc(NC(=O)[N-]c2c[n+]([C@H]3CC[C@H](CN(C)C)CC3)no2)cc(C(F)(F)F)c1 [Example 197, (3-((1R,4R)-4-((Dimethylamino)methyl)-cyclohexyl)-1,2,3-oxadiazol-3-ium-5-yl)((3-(2-(3,5-dimethylisoxazol-4-yl)acetamido)-5-(trifluoromethyl)phenyl)carbamoyl)amide]	1000 to 20000 nM	–	< 100 nM	–
O=C([N-]c1c[n+](CC2CCCc3ccccc32)no1)Nc1ccnc(C(F)(F)F)c1 (racemic) [Example 200, Rac-(3-((1,2,3,4-Tetrahydronaphthalen-1-yl)methyl)-1,2,3-oxadiazol-3-ium-5-yl)((2-(trifluoromethyl)pyridin-4-yl)carbamoyl)amide]	100 to 1000 nM	100 to 1000 nM	–	–
CC(C(=O)N(C)c1cc(NC(=O)[N-]c2c[n+]([C@H]3CC[C@H](CN(C)C)CC3)no2)cc(C(F)(F)F)c1)c1ccccc1 (stereo partly drawn) [Example 167, (3-((1R,4R)-4-((Dimethylamino)methyl)-cyclohexyl)-1,2,3-oxadiazol-3-ium-5-yl)((3-(N-methyl-2-phenylpropanamido)-5-(trifluoromethyl)phenyl)carbamoyl)amide]	100 to 1000 nM	–	1000 to 20000 nM	–
Cc1ncnc(C)c1-c1ccc(C[n+]2cc([N-]C(=O)Nc3ccc(C#N)c(C(F)(F)F)c3)on2)cc1 [Example 207, ((4-Cyano-3-(trifluoromethyl)phenyl)-carbamoyl)(3-(4-(4,6-dimethylpyrimidin-5-yl)benzyl)-1,2,3-oxadiazol-3-ium-5-yl)amide]	100 to 1000 nM	100 to 1000 nM	–	–
Cc1ccccc1CC(=O)Nc1cc(NC(=O)[N-]c2c[n+]([C@H]3CCC[C@@H](c4cncnc4)C3)no2)cc(C(F)(F)F)c1 [Example 222, (3-((1S,3R)-3-(Pyrimidin-5-yl)cyclohexyl)-1,2,3-oxadiazol-3-ium-5-yl)((3-(2-(o-tolyl)acetamido)-5-(trifluoromethyl)phenyl)-carbamoyl)amide]	< 100 nM	100 to 1000 nM	–	–
COC(=O)[C@H]1CC[C@H]([n+]2cc([N-]C(=O)Nc3cc(NC(=O)Cc4ccccc4C)cc(C(F)(F)F)c3)on2)CC1 [Example 227, (3-((1R,4R)-4-(Methoxycarbonyl)cyclohexyl)-1,2,3-oxadiazol-3-ium-5-yl)((3-(2-(o-tolyl)-acetamido)-5-(trifluoromethyl)phenyl)carbamoyl) amide]	< 100 nM	–	1000 to 20000 nM	–
Cc1ncnc(C)c1-c1ccc(C[n+]2cc([N-]C(=O)N[C@H]3CC[C@@]4(C3)CC4(F)F)on2)nc1 (racemic) [Example 180, rac-(((3R,5S)-1,1-Difluorospiro[2.4]heptan-5-yl)carbamoyl)(3-((5-(4,6-dimethylpyrimidin-5-yl)pyridin-2-yl)methyl)-1,2,3-oxadiazol-3-ium-5-yl)amide]	1000 to 20000 nM	1000 to 20000 nM	–	–
CN(C)C[C@H]1CC[C@H]([n+]2cc([N-]C(=O)Nc3cc(NC(=O)Cc4cccc(Cl)c4)cc(C(F)(F)F)c3)on2)CC1 [Example 176, ((3-(2-(3-Chlorophenyl)acetamido)-5-(trifluoromethyl)phenyl)carbamoyl)(3-((1R,4R)-4-((dimethylamino)methyl)cyclohexyl)-1,2,3-oxadiazol-3-ium-5-yl)amide]	100 to 1000 nM	–	1000 to 20000 nM	–
CN1CCc2ccccc2C1C[n+]1cc([N-]C(=O)Nc2ccnc(C(F)(F)F)c2)on1 (racemic) [Example 181, rac-(3-((2-Methyl-1,2,3,4-tetrahydroisoquinolin-1-yl)methyl)-1,2,3-oxadiazol-3-ium-5-yl)((2-(trifluoromethyl)pyridin-4-yl)carbamoyl)amide]	< 100 nM	100 to 1000 nM	–	–
O=C([N-]c1c[n+](CC23CC(c4cncnc4)(C2)C3)no1)Nc1cccc(C(F)(F)F)c1 [Example 183, (3-((3-(Pyrimidin-5-yl)bicyclo[1.1.1]pentan-1-yl)methyl)-1,2,3-oxadiazol-3-ium-5-yl)((3-(trifluoromethyl)phenyl)carbamoyl)amide]	100 to 1000 nM	100 to 1000 nM	–	–
CNC(=O)[C@H]1CC[C@H]([n+]2cc([N-]C(=O)Nc3cc(NC(=O)Cc4ccccc4C)cc(C(F)(F)F)c3)on2)CC1 [Example 251, rac-(3-((1R,4R)-4-(Methylcarbamoyl)-cyclohexyl)-1,2,3-oxadiazol-3-ium-5-yl)((3-(2-(o-tolyl)acetamido)-5-(trifluoromethyl)phenyl)-carbamoyl)amide]	100 to 1000 nM	–	1000 to 20000 nM	–
CN(C)C[C@H]1CC[C@H]([n+]2cc([N-]C(=O)Nc3cc(NC(=O)C(F)c4ccccc4F)cc(C(F)(F)F)c3)on2)CC1 (stereo partly drawn) [Example 194, (3-((1R,4R)-4-((Dimethylamino)methyl)-cyclohexyl)-1,2,3-oxadiazol-3-ium-5-yl)((3-(2-fluoro-2-(2-fluorophenyl)acetamido)-5-(trifluoromethyl)phenyl)carbamoyl)amide]	100 to 1000 nM	–	< 100 nM	–
Cc1nn(C)cc1-c1ccc(C[n+]2cc([N-]C(=O)Nc3ccnc(C(F)(F)F)c3)on2)cc1 [Example 237, (3-(4-(1,3-Dimethyl-1H-pyrazol-4-yl)benzyl)-1,2,3-oxadiazol-3-ium-5-yl)((2-(trifluoromethyl)-pyridin-4-yl)carbamoyl)amide]	100 to 1000 nM	1000 to 20000 nM	–	–
Cc1ccccc1CC(=O)Nc1cc(NC(=O)[N-]c2c[n+]([C@H]3CCC[C@@H](CN(C)C)C3)no2)cc(C(F)(F)F)c1 [Example 213, (3-((1S,3R)-3-((Dimethylamino)methyl)-cyclohexyl)-1,2,3-oxadiazol-3-ium-5-yl)((3-(2-(o-tolyl)acetamido)-5-(trifluoromethyl)phenyl)carbamoyl)amide]	100 to 1000 nM	1000 to 20000 nM	–	–
COC(=O)[C@@H]1CCC[C@@H]([n+]2cc([N-]C(=O)Nc3cc(NC(=O)Cc4ccccc4C)cc(C(F)(F)F)c3)on2)C1 [Example 224, (3-((1R,3R)-3-(Methoxycarbonyl)cyclohexyl)-1,2,3-oxadiazol-3-ium-5-yl)((3-(2-(o-tolyl)-acetamido)-5-(trifluoromethyl)phenyl)-carbamoyl)amide]	< 100 nM	< 100 nM	–	–

From patent EP4563146A1 (IRBM S.P.A., priority 2023, dated 2025)
